Results from PMC6527222 (PLoS ONE, 2019).
“Also recorded” adds a separate entry of the source. Where two headings read alike, the source gives them in different places.

Legend:
[1] = test system: hairless mice (UV-induced skin thickening); test: Eight dose UV exposure, bi-folded epidermal thickness in hairless wild type and β2-AR knockout mice; format: in vivo, mouse; conditions: 5 μM in 200 μL acetone topically every other day, 200 mJ/cm^2 UV, eight irradiations
Procedure: The Western University of Health Sciences’ Institutional Animal Care and Use Committee (WesternU IACUC) approved all animal studies prior to initiating any experiments. The animal studies were carried out under WesternU IACUC recommendations and guidelines, which follow NIH guidelines. Mice had access to water and food ad libitum and housed on a 12-hour light/dark cycle with 35% humidity. Homozygous β1-AR and β2-AR null mice (Adrb1^tm1Bkk Adrb2^tm1Bkk/J Stock Number 003810) were purchased from Jackson Laboratory (Bar Harbor, ME); the double knockout mice were characterized previously. The double knockout mice were bred with C57BL/6J from Jackson Lab to generate a heterozygous F1 generation. The F1 generation was bred together to generate the F2 generation of which 1/16th of the offspring were a β2-AR knockout mouse. SKH-1 mice purchased from Charles River (Wilmington, MA) were bred with the β2-AR knockout mice generating a second heterozygous F1 generation. The F1 generation was bred together to generate the F2 generation of which 1/16th of the offspring were a hairless β2-AR knockout mouse. The F2 generation was backcrossed with a new batch of SKH-1 from Charles River to generate mice more efficiently. The mice used in this study are 75% SKH-1 and 25% mixed background. Following experimentation, and to cull the unused mice in a colony, mice were euthanized via exposure to 32% Isoflurane followed by cervical dislocation to ensure euthanization prior to disposal.
The first two weeks were pretreatment and the second two weeks were during the UV irradiation procedure, but drugs were applied the day after UV exposure to avoid sunscreen effects. All groups involved with UV were irradiated with 200 mJ/cm^2 dose of UV every other day for a total of eight irradiations. Bi-folded epidermal thickness was measured using a digital caliper before drug treatment on non-radiation days. Three skin thickness measurements were taken along the left, middle, and right dorsal epidermal layer, and the mean thickness was recorded for each mouse.

[2] = test system: JB6 P+ cells; test: Anchorage-independent growth assay in soft agar (EGF-induced JB6 P+ colony formation); format: cell-based, mouse; conditions: for minimal effective concentration / IC50 / Emax: Mus musculus; for minimal effective concentration / IC50 / effect on EGF-mediated transformation of JB6 P+ cells, words: 10 ng/mL EGF; for minimal effective concentration: first concentration with expected statistical decrease, read-out: Soft Agar Assay Log IΔ2*PSD (converted); for Emax: efficacy of inhibition of colony formation, reported if non-toxic
Procedure: Ten ng/mL EGF was used to promote the anchorage-independent growth of JB6 cells. […] Plates were incubated at 37°C, 5% CO2 for 14 days. Colonies with greater than ten cells were counted manually under a microscope. […] Normalization allowed for comparison of data over a range of JB6 P+ cell cultures, passages, and experimental time for the shRNA studies, as well as control for variation in the EGF response, and importantly allowed for a direct comparison to all concentration-response experiments including the toxicity assays. […] All group sizes were determined via previous studies to provide statistically meaningful data. In the soft agar assays, key results were repeated with different JB6 P+ cells to confirm the results. Similarly, the shRNA studies were conducted with three independent concentration-response curves with different JB6 P+ cell stocks. […] For two sample comparisons a t-test was utilized, and when comparing multiple samples a One-, Two-, or Three-Factor ANOVA followed by Tukey-Kramer post hoc test was utilized depending on the data. For all tests, statistical difference was donated when p < 0.05. […] The I[…]*PSD is expressed in x-axis units (log [M]) as is an IC50 and it represents the first concentration where it is expected to observe a statistical decrease in the measured signal. […] Using the formula provided by GraphPad Prism or a straight line for the point-to-point graphs, the X-axis value for point Y was determined. The error is ascribed to this measurement via adding and subtracting the pooled standard deviation (PSD) to/from point Y generating point Y ± PSD. The two new points were then transformed to the X-axis units as was done for point Y creating an asymmetric error in sigmoidal plots. When the error was asymmetric, the larger error value was chosen to err on the conservative side. See S1 Fig for a pictoral explination of the method. The data is presented as I[…]*PSD ± error.

[3] = test system: JB6 P+ cells; test: SRB cytotoxicity assay; format: cell-based, mouse; conditions: for SRB Assay Log IΔ2*PSD: NT = no toxicity at any concentration tested; for Toxicity label: Toxic = no 10-fold difference between IΔ2*PSD from soft agar and SRB assays
Procedure: 96-well plates were seeded with 3x10^3 JB6 P+ cells per well and allowed to attach overnight. […] Cell viability was determined using Sulforhodamine B (SRB) assay from Sigma-Aldrich according to the manufacturer’s protocol. Cellular protein content was measured using a Bio-Tek μQuant plate reader with KCJunior software.
Concentration-response curves were normalized so that the EGF positive control on each 96-well plate was set to 100% and the control wells on each plate were set to 0%. Toxicity assays (SRB and MTS) were normalized so that the control on each plate represented 100% viability. Normalization allowed for comparison of data over a range of JB6 P+ cell cultures, passages, and experimental time for the shRNA studies, as well as control for variation in the EGF response, and importantly allowed for a direct comparison to all concentration-response experiments including the toxicity assays. […] All group sizes were determined via previous studies to provide statistically meaningful data. In the soft agar assays, key results were repeated with different JB6 P+ cells to confirm the results. Similarly, the shRNA studies were conducted with three independent concentration-response curves with different JB6 P+ cell stocks. […] For two sample comparisons a t-test was utilized, and when comparing multiple samples a One-, Two-, or Three-Factor ANOVA followed by Tukey-Kramer post hoc test was utilized depending on the data. For all tests, statistical difference was donated when p < 0.05.
The IΔ2*PSD is expressed in x-axis units (log [M]) as is an IC50 and it represents the first concentration where it is expected to observe a statistical decrease in the measured signal.
Using the formula provided by GraphPad Prism or a straight line for the point-to-point graphs, the X-axis value for point Y was determined. The error is ascribed to this measurement via adding and subtracting the pooled standard deviation (PSD) to/from point Y generating point Y ± PSD. The two new points were then transformed to the X-axis units as was done for point Y creating an asymmetric error in sigmoidal plots. When the error was asymmetric, the larger error value was chosen to err on the conservative side. See S1 Fig for a pictoral explination of the method. The data is presented as IΔ2*PSD ± error.

[4] = test system: β2-AR; parameters: method as in as printed in each cell (43-46, 48-54, 56-58); conditions: as described in the references; ref (43-46, 48-54, 56-58); cited from earlier work
[5] = test system: JB6 P+ cells; conditions: cited from earlier work
[6] = molecular target: β2-AR; conditions: given as negative log value; cited from earlier work
[7] = molecular target: α1D-AR; conditions: read-out: Kd towards the α1D-AR; cited from earlier work
[8] = 336 h, 14 days, negative log value, read-out: Soft Agar Assay Log IC50 (converted)
[9] = soft agar, read-out: IC50, inhibition of EGF-mediated transformation

Compound | minimal effective concentration ([2]; 336 h, 14 days) [µM] | SRB Assay Log IΔ2*PSD ([3]; 72 hr) | Toxicity label [3] | Pharmacological property at β2-AR [4] | IC50 [2, 8] [nM] | other results
Oc1cccc2[nH]c3ccccc3c12 [4-OHC, 4-Hydroxycarbazole] | – | – | – | – | – | effect on UV-induced skin thickening, words ([1]; wild type mice): little effect in wild type mice; effect on UV-induced skin thickening, words ([1]; β2-AR knockout mice): no effect in knockout mice
CCCC(=O)Nc1ccc(OCC(O)CNC(C)C)c(C(C)=O)c1 (stereo not shown) [Acebutolol] | 49 | -3.39 ± 0.70 log [M] | Toxic | Partial agonist [56] | – | –
C=CCc1ccccc1OCC(O)CNC(C)C (stereo not shown) [Alprenolol] | – | -4.95 ± 0.06 log [M] | – | Biased agonist/ activates ERK [43] | 427 | Emax [2]: 93.8 ± 2.88%
CC(C)NCC(O)COc1ccc(CC(N)=O)cc1 (stereo not shown) [Atenolol] | – | – | – | Inverse agonist for cAMP [50] | – | Emax [2]: 47.9 ± 7.81%; Soft Agar Assay Log IC50 ([5]; 10 ng/mL EGF, negative log value): -5.04 ± 0.27 [19] log [M]; effect on EGF-mediated transformation of JB6 P+ cells, words ([5]; previous data): less potent and displayed partial efficacy; IC50 ([5]; previously published atenolol, read-out: IC50, inhibition of EGF-mediated transformation): 9190 nM
CC(C)(Cc1c[nH]c2ccccc12)NCC(O)COc1ccccc1C#N (stereo not shown) [Bucindolol] | 1.91 | -4.84 ± 0.10 log [M] | Toxic | Partial agonist for cAMP and full agonist for ERK [44, 52] | 9330 | Log Kd at β2-AR [6]: -8.22 ± 0.1 [52]
Cc1ccc(Cl)c(OCC(O)CNC(C)(C)C)c1 (stereo not shown) [Bupranolol] | – | -4.80 ± 0.05 log [M] | Toxic | Antagonist, not specified | – | –
CC(C)(C)NCC(O)COc1cccc2[nH]c(=O)[nH]c12 (stereo not shown) [CGP 12177] | 7.59 | -4.46 ± 0.19 log [M] | Toxic | Partial agonist [53] | – | effect on EGF-mediated transformation of JB6 P+ cells, words ([2]; soft agar): do not prevent EGF-induced transformation of JB6 P+ cells
CC(C)NCC(O)COc1cccc2[nH]c3ccccc3c12 (stereo not shown) [Carazolol] | 7.41 | -5.00 ± 0.14 log [M] | Toxic | – | – | –
Cl.O=C1c2ccccc2CCC1CNCCc1ccc(O)cc1 (stereo not drawn) [HEAT HCl, 2-{[β-(4-Hydroxyphenyl)ethyl]aminomethyl}-1-tetralone hydrochloride] | 0.145 | -5.99 ± 0.03 log [M] | – | – | – | Kd [7]: 0.361 ± 0.08 nM; effect on EGF-mediated transformation of JB6 P+ cells, words ([2]; soft agar): only inhibited colony formation at 1 and 10 μM; also recorded: do not prevent EGF-induced transformation of JB6 P+ cells; toxicity in SRB assay, words ([3]; 72 hr): toxicity at 10 μM
Cc1ccc(OCC(O)C(C)NC(C)C)c2c1CCC2 (stereo not shown) [ICI 118,551] | 3.39 | -3.59 ± 0.50 log [M] | Toxic | Inverse agonist for cAMP that recruits ±-arr [29, 49] | 4470 | –
CC(C)NCC(O)c1ccc(O)c(O)c1 (stereo not shown) [Isoproterenol] | 24.5 | -4.77 ± 0.16 log [M] | Toxic | Full equipotent agonist [44, 58] | – | effect on EGF-mediated transformation of JB6 P+ cells, words ([2]; soft agar): failed to increase EGF-mediated transformation of JB6 P+ cells
CC(CCc1ccccc1)NCC(O)c1ccc(O)c(C(N)=O)c1 (stereo not shown) [Labetalol] | – | – | – | Partial agonist for cAMP and full agonist for ERK [44, 45] | 501 | Emax [2]: 90.3 ± 8.48%
COCCc1ccc(OCC(O)CNC(C)C)cc1 (stereo not shown) [Metoprolol] | 24.5 | -4.52 ± 0.20 log [M] | Toxic | Inverse agonist for cAMP [51] | – | –
CC(C)(C)NCC(O)COc1cccc2c1CC(O)C(O)C2 (stereo not shown) [Nadolol] | 4.68 | – | – | Inverse agonist for cAMP [44, 57] | – | effect on EGF-mediated transformation of JB6 P+ cells, words ([2]; soft agar): do not prevent EGF-induced transformation of JB6 P+ cells
CC(C)NCC(O)c1ccc2ccccc2c1 (stereo not shown) [Pronethalol] | – | -4.86 ± 0.23 log [M] | – | Inverse agonist for cAMP [48] | 2510 | IC50 [2, 9]: 2530 nM; Emax [2]: 100%
CC(C)NCC(O)COc1cccc2ccccc12 (stereo not shown) [Propranolol] | 5.5 | -4.20 ± 0.11 log [M] | – | Inverse agonist for cAMP that recruits ±-arr [29, 51] | – | –
CC(C)(C)NC[C@H](O)COc1nsnc1N1CCOCC1 [Timolol] | – | -4.22 ± 0.34 log [M] | – | Inverse agonist for cAMP [48] | 3310 | IC50 [2, 9]: 3310 nM; Emax [2]: 100%
